According to ChEMBL document CHEMBL5726876, “NHE3-binding compounds and methods for inhibiting phosphate transport” (2019):
pIC50: −log10 of the molar value.

Assay: Cell-based activity under Prompt Conditions: Cell-based activity under Prompt Conditions. Rat or human NHE3-mediated Na+-dependent H+ antiport was measured using a modification of the pH sensitive dye method originally reported by Paradiso (PNAS USA. 81:7436-7440, 1984). Opossum kidney (OK) cells were obtained from the ATCC and propagated per their instructions. The rat NHE3 gene (GenBank M85300) or the human NHE3 gene (GenBank NM_004174.1) was introduced into OK cells via electroporation, and cells were seeded into 96 well plates and grown overnight. Medium was aspirated from the wells, cells were washed twice with NaCl-HEPES buffer (100 mM NaCl, 50 mM HEPES, 10 mM glucose, 5 mM KCl, 2 mM CaCl2, 1 mM MgCl2, pH 7.4), then incubated for 30 min at room temperature with NH4Cl-HEPES buffer (20 mM NH4Cl, 80 mM NaCl, 50 mM HEPES, 5 mM KCl, 2 mM CaCl2, 1 mM MgCl2, pH 7.4) containing 5 μM bis(acetoxymethyl) 3,3′-(3′,6′-bis(acetoxymethoxy)-5-((acetoxymethoxy)carbonyl)-3-oxo-3H-spiro[isobenzofuran-1,9′-xanthene]-2′,7′-diyl)dipropanoate (BCECF-AM).Cells were washed twice with Ammonium free, Na+-free HEPES (100 mM choline, 50 mM HEPES, 10 mM glucose, 5 mM KCl, 2 mM CaCl2, 1 mM MgCl2, pH 7.4) and incubated in the same buffer for 10 minutes at room temperature to lower intracellular pH. […] Initial rates were plotted as the average 2 or more replicates, and pIC50 values were estimated using GraphPad Prism.
CCC(=O)NC(CCC(=O)NCCOCCOCCOCCNS(=O)(=O)c1cccc([C@@H]2CN(C)Cc3c(Cl)cc(Cl)cc32)c1)(CCC(=O)NCCOCCOCCOCCNS(=O)(=O)c1cccc([C@@H]2CN(C)Cc3c(Cl)cc(Cl)cc32)c1)CCC(=O)NCCOCCOCCOCCNS(=O)(=O)c1cccc([C@@H]2CN(C)Cc3c(Cl)cc(Cl)cc32)c1 gave a pIC50 of 7.10.
CCCCCCCCCCC(=O)NC(CCC(=O)NCCOCCOCCNS(=O)(=O)c1cccc([C@@H]2CN(C)Cc3c(Cl)cc(Cl)cc32)c1)(CCC(=O)NCCOCCOCCNS(=O)(=O)c1cccc([C@@H]2CN(C)Cc3c(Cl)cc(Cl)cc32)c1)CCC(=O)NCCOCCOCCNS(=O)(=O)c1cccc([C@@H]2CN(C)Cc3c(Cl)cc(Cl)cc32)c1 gave a pIC50 greater than 5.00.
Molecule CN1Cc2c(Cl)cc(Cl)cc2[C@H](c2cccc(S(=O)(=O)NCCOCCOCCNC(=O)N(C)CCCN(CCCN(C)C(=O)NCCOCCOCCNS(=O)(=O)c3cccc([C@@H]4CN(C)Cc5c(Cl)cc(Cl)cc54)c3)CCCN(C)C(=O)NCCOCCOCCNS(=O)(=O)c3cccc([C@@H]4CN(C)Cc5c(Cl)cc(Cl)cc54)c3)c2)C1 has a pIC50 of 6.90.
CN1Cc2c(Cl)cc(Cl)cc2[C@H](c2cccc(S(=O)(=O)NCCOCCOCCNC(=O)CCC(=O)NCCOCCOCCNS(=O)(=O)c3ccc(O[C@H]4c5ccccc5C[C@@H]4N4CCCCC4)cc3)c2)C1 showed a pIC50 of 7.50.
With O=C(NCCCCNC(=O)NCCOCCOCCNS(=O)(=O)c1ccc(O[C@H]2c3cc(Cl)cc(Cl)c3C[C@@H]2N2CC[C@@H](O)C2)cc1)NCCOCCOCCNS(=O)(=O)c1ccc(O[C@H]2c3cc(Cl)cc(Cl)c3C[C@@H]2N2CC[C@@H](O)C2)cc1 the pIC50 was greater than 5.00.
With O=C(NCCOCCOCCOCCNS(=O)(=O)c1ccc(O[C@H]2c3ccccc3C[C@@H]2N2CCCCC2)cc1)c1ccc(C(=O)NCCOCCOCCOCCNS(=O)(=O)c2ccc(O[C@H]3c4ccccc4C[C@@H]3N3CCCCC3)cc2)cc1 the pIC50 was 7.50.
For O=C(NCCOCCOCCNS(=O)(=O)c1ccc(O[C@H]2c3ccccc3C[C@@H]2N2CCCCC2)cc1)c1ccc(C(=O)NCCOCCOCCNS(=O)(=O)c2ccc(O[C@H]3c4ccccc4C[C@@H]3N3CCCCC3)cc2)cc1, the pIC50 was 8.10.
CN(C)[C@H]1Cc2ccc(Cl)cc2[C@@H]1Oc1ccc(S(=O)(=O)NCCOCCOCCNC(=O)NCCCCNC(=O)NCCOCCOCCNS(=O)(=O)c2ccc(O[C@H]3c4cc(Cl)ccc4C[C@@H]3N(C)C)cc2)cc1 gave a pIC50 greater than 5.00.
CN1Cc2c(Cl)cc(Cl)cc2[C@H](c2cccc(S(=O)(=O)NCCOCCOCCOCCNCc3ccc(-c4ccc(Cl)cc4)cc3)c2)C1 gave a pIC50 greater than 5.00.
CN1Cc2c(Cl)cc(Cl)cc2[C@H](c2cccc(S(=O)(=O)NCCOCCOCCNC(=O)NCCN(CCNC(=O)NCCOCCOCCNS(=O)(=O)c3cccc([C@@H]4CN(C)Cc5c(Cl)cc(Cl)cc54)c3)C(=O)NCCOCCOCCNC(=O)c3ccc(-c4ccc(Cl)cc4)cc3)c2)C1 showed a pIC50 of 5.80.
Work on CCCCCCCCCCC(=O)NCCOCCOCCOCCNS(=O)(=O)c1cccc([C@@H]2CN(C)Cc3c(Cl)cc(Cl)cc32)c1 yielded a pIC50 greater than 5.00.
With CCCCCCCCOc1ccc(CNCCOCCOCCOCCNS(=O)(=O)c2cccc([C@@H]3CN(C)Cc4c(Cl)cc(Cl)cc43)c2)cc1 the pIC50 was greater than 5.00.
With CN1Cc2c(Cl)cc(Cl)cc2[C@H](c2cccc(S(=O)(=O)NCCOCCOCCNC(=O)COCC(=O)NCCOCCOCCNS(=O)(=O)c3ccc(O[C@H]4c5ccccc5C[C@@H]4N4CCCCC4)cc3)c2)C1 the pIC50 was 7.60.
Molecule CN1Cc2c(Cl)cc(Cl)cc2[C@H](c2cccc(S(=O)(=O)NCCOCCOCCNC(=O)CCC(CCC(=O)NCCOCCOCCNS(=O)(=O)c3cccc([C@@H]4CN(C)Cc5c(Cl)cc(Cl)cc54)c3)(CCC(=O)NCCOCCOCCNS(=O)(=O)c3cccc([C@@H]4CN(C)Cc5c(Cl)cc(Cl)cc54)c3)NCc3ccc(-c4ccc(Cl)cc4)cc3)c2)C1 has a pIC50 greater than 5.00.
CN1Cc2c(Cl)cc(Cl)cc2[C@H](c2cccc(S(=O)(=O)NCCOCCOCCOCCNC(=O)CCC(N)(CCC(=O)NCCOCCOCCOCCNS(=O)(=O)c3cccc([C@@H]4CN(C)Cc5c(Cl)cc(Cl)cc54)c3)CCC(=O)NCCOCCOCCOCCNS(=O)(=O)c3cccc([C@@H]4CN(C)Cc5c(Cl)cc(Cl)cc54)c3)c2)C1 showed a pIC50 of 7.20.
In the case of CC(C)CCC[C@@H](C)[C@H]1CC[C@H]2[C@@H]3CC=C4C[C@@H](OC(=O)NCCOCCOCCNC(=O)N(CCNC(=O)NCCOCCOCCNS(=O)(=O)c5cccc([C@@H]6CN(C)Cc7c(Cl)cc(Cl)cc76)c5)CCNC(=O)NCCOCCOCCNS(=O)(=O)c5cccc([C@@H]6CN(C)Cc7c(Cl)cc(Cl)cc76)c5)CC[C@]4(C)[C@H]3CC[C@]12C, the pIC50 was greater than 5.00.
CN1Cc2c(Cl)cc(Cl)cc2[C@H](c2cccc(S(=O)(=O)NCCOCCOCCNC(=O)NCCN(CCNC(=O)NCCOCCOCCNS(=O)(=O)c3cccc([C@@H]4CN(C)Cc5c(Cl)cc(Cl)cc54)c3)C(=O)NCCOCCOCCN)c2)C1 showed a pIC50 of 8.40.
With CN1Cc2c(Cl)cc(Cl)cc2[C@H](c2cccc(S(=O)(=O)NCCOCCOCCNC(=O)CN(CCOCCOCCOCCN)CC(=O)NCCOCCOCCNS(=O)(=O)c3cccc([C@@H]4CN(C)Cc5c(Cl)cc(Cl)cc54)c3)c2)C1 the pIC50 was 7.80.
Molecule CN1Cc2c(Cl)cc(Cl)cc2[C@H](c2cccc(S(=O)(=O)NCCOCCOCCNC(=O)NCCC[N+](C)(CCCNC(=O)NCCOCCOCCNS(=O)(=O)c3cccc([C@@H]4CN(C)Cc5c(Cl)cc(Cl)cc54)c3)CCCNC(=O)NCCOCCOCCNS(=O)(=O)c3cccc([C@@H]4CN(C)Cc5c(Cl)cc(Cl)cc54)c3)c2)C1 has a pIC50 of 7.40.
CN1Cc2c(Cl)cc(Cl)cc2[C@H](c2cccc(S(=O)(=O)NCCOCCOCCOCCNC(=O)c3ccc(-c4ccc(Cl)cc4)cc3)c2)C1 showed a pIC50 greater than 5.00.
Work on C=CC(=O)NCCOCCOCCOCCNS(=O)(=O)c1cccc([C@@H]2CN(C)Cc3c(Cl)cc(Cl)cc32)c1 yielded a pIC50 of 6.70.
With CN1Cc2c(Cl)cc(Cl)cc2[C@H](c2cccc(S(=O)(=O)NCCOCCOCCNC(=O)CN(CCOCCOCCOCCNC(=O)c3ccc(-c4ccc(Cl)cc4)cc3)CC(=O)NCCOCCOCCNS(=O)(=O)c3cccc([C@@H]4CN(C)Cc5c(Cl)cc(Cl)cc54)c3)c2)C1 the pIC50 was 5.90.
CN1Cc2c(Cl)cc(Cl)cc2[C@H](c2cccc(S(=O)(=O)NCCOCCOCCOCCNC(=O)CCC(CCC(=O)NCCOCCOCCOCCNS(=O)(=O)c3cccc([C@@H]4CN(C)Cc5c(Cl)cc(Cl)cc54)c3)(CCC(=O)NCCOCCOCCOCCNS(=O)(=O)c3cccc([C@@H]4CN(C)Cc5c(Cl)cc(Cl)cc54)c3)NC(=O)c3ccc(-c4ccc(Cl)cc4)cc3)c2)C1 showed a pIC50 of 5.30.
For O=C(NCCOCCOCCNS(=O)(=O)c1ccc(O[C@H]2c3ccccc3C[C@@H]2N2CCCCC2)cc1)c1cccc(C(=O)NCCOCCOCCNS(=O)(=O)c2ccc(O[C@H]3c4ccccc4C[C@@H]3N3CCCCC3)cc2)c1, the pIC50 was greater than 5.00.
In the case of CN(C)[C@H]1Cc2ccccc2[C@@H]1Oc1ccc(S(=O)(=O)NCCOCCOCCNC(=O)NCCCCNC(=O)NCCOCCOCCNS(=O)(=O)c2ccc(O[C@H]3c4ccccc4C[C@@H]3N(C)C)cc2)cc1, the pIC50 was greater than 5.00.
In the case of CC(C)(C(=O)NCCOCCOCCOCCNS(=O)(=O)c1ccc(O[C@H]2c3ccccc3C[C@@H]2N2CCCCC2)cc1)C(=O)NCCOCCOCCOCCNS(=O)(=O)c1ccc(O[C@H]2c3ccccc3C[C@@H]2N2CCCCC2)cc1, the pIC50 was 8.70.
O=C(NCCCCNC(=O)NCCOCCOCCNS(=O)(=O)c1ccc(O[C@H]2c3ccccc3C[C@@H]2N2CCCC2)cc1)NCCOCCOCCNS(=O)(=O)c1ccc(O[C@H]2c3ccccc3C[C@@H]2N2CCCC2)cc1 gave a pIC50 of 8.60.
O=C(NCCOCCOCCNS(=O)(=O)c1ccc(O[C@H]2c3ccccc3C[C@@H]2N2CCCCC2)cc1)[C@H](O)[C@@H](O)C(=O)NCCOCCOCCNS(=O)(=O)c1ccc(O[C@H]2c3ccccc3C[C@@H]2N2CCCCC2)cc1 gave a pIC50 of 8.40.
In the case of O=C(NCCOCCOCCOCCNS(=O)(=O)c1ccc(O[C@H]2c3ccccc3C[C@@H]2N2CCCCC2)cc1)c1cccc(C(=O)NCCOCCOCCOCCNS(=O)(=O)c2ccc(O[C@H]3c4ccccc4C[C@@H]3N3CCCCC3)cc2)c1, the pIC50 was 7.40.
With CCCCCCCCOCCOCCOCCOCCOCCOC(=O)NCCOCCOCCOCCNS(=O)(=O)c1cccc([C@@H]2CN(C)Cc3c(Cl)cc(Cl)cc32)c1 the pIC50 was 6.60.
For CCC(=O)NCCOCCOCCOCCNS(=O)(=O)c1cccc([C@@H]2CN(C)Cc3c(Cl)cc(Cl)cc32)c1, the pIC50 was 6.70.
CN1Cc2c(Cl)cc(Cl)cc2[C@H](c2cccc(S(=O)(=O)NCCOCCOCCNC(=O)CCC(N)(CCC(=O)NCCOCCOCCNS(=O)(=O)c3cccc([C@@H]4CN(C)Cc5c(Cl)cc(Cl)cc54)c3)CCC(=O)NCCOCCOCCNS(=O)(=O)c3cccc([C@@H]4CN(C)Cc5c(Cl)cc(Cl)cc54)c3)c2)C1 gave a pIC50 of 7.07.
CN1Cc2c(Cl)cc(Cl)cc2[C@H](c2cccc(S(=O)(=O)NCCOCCOCCOCCNC(=O)CCC(CCC(=O)NCCOCCOCCOCCNS(=O)(=O)c3cccc([C@@H]4CN(C)Cc5c(Cl)cc(Cl)cc54)c3)(CCC(=O)NCCOCCOCCOCCNS(=O)(=O)c3cccc([C@@H]4CN(C)Cc5c(Cl)cc(Cl)cc54)c3)NCc3ccc(-c4ccc(Cl)cc4)cc3)c2)C1 showed a pIC50 greater than 5.00.
For CN1Cc2c(Cl)cc(Cl)cc2[C@H](c2cccc(S(=O)(=O)N(C)CCOCCOCCNC(=O)NCCCN(CCCNC(=O)NCCOCCOCCN(C)S(=O)(=O)c3cccc([C@@H]4CN(C)Cc5c(Cl)cc(Cl)cc54)c3)CCCNC(=O)NCCOCCOCCN(C)S(=O)(=O)c3cccc([C@@H]4CN(C)Cc5c(Cl)cc(Cl)cc54)c3)c2)C1, the pIC50 was 7.00.
CCCCCCCCNC(=O)N(CCNC(=O)NCCOCCOCCNS(=O)(=O)c1cccc([C@@H]2CN(C)Cc3c(Cl)cc(Cl)cc32)c1)CCNC(=O)NCCOCCOCCNS(=O)(=O)c1cccc([C@@H]2CN(C)Cc3c(Cl)cc(Cl)cc32)c1 gave a pIC50 of 5.80.
For CCOCCOCCOCCOCCOCCC(=O)N(CCNC(=O)NCCOCCOCCNS(=O)(=O)c1cccc([C@@H]2CN(C)Cc3c(Cl)cc(Cl)cc32)c1)CCNC(=O)NCCOCCOCCNS(=O)(=O)c1cccc([C@@H]2CN(C)Cc3c(Cl)cc(Cl)cc32)c1, the pIC50 was 6.60.
